The record followed here is patent US20080293818A1, “Regulator of Physiological Function of Ghrelin and Use Thereof” (priority 2004, published 2008).

Marks after values point to notes of the source that are not given here.

In test [1] the test system is des-acyl and acyl-modified ghrelin peptides in the stomach. Description: Molecular forms of stomach ghrelin peptide after ingestion (HPLC fractionation, C-RIA). In kind it is in vivo, mouse. Here is the method:
(§1) Male C57BL/6J mice weighing 20-25 g (10-12 week old) were maintained under controlled temperature (21-23° C.) and light conditions (light on 0700-1900) with ad libitum access to food and water. Medium-chain fatty acids (MCFAs), i.e., n-hexanoic, n-octanoic, and n-lauric acids (Sigma-Aldrich Japan Co., Ltd., Tokyo), were dissolved in water at 5 mg/ml. n-Palmitic acid, a common long-chain fatty acid (LCFA) (Sigma-Aldrich Japan Co., Ltd., Tokyo), was mixed into standard laboratory chow (CLEA Rodent Diet CE-2, CLEA Japan, Osaka) at a concentration of 1% (w/w), to equilibrate the total intake amount of this lipid to the other medium-chain fatty acids contained in the food. Medium- and long-chain triglycerides (MCTs and LCTs), i.e., glyceryl trihexanoate, trioctanoate, tridecanoate and tripalmitates (Wako Pure Chemical, Osaka, Japan), were mixed with standard laboratory chow at a concentration of 5% (w/w). Whole stomach tissues from treated mice were collected at the indicated times (0-14 days) after ingesting the free fatty acid- or triacylglyceride-containing food. Fresh tissue samples from these mice were diced and boiled for 5 minutes in a 10-fold volume of water. The tissue-containing solution was then adjusted to 1M acetic acid after cooling and then homogenized with a Polytron mixer. The supernatant, obtained after centrifugation at 15,000 rpm for 15 minutes, was then lyophilized. The lyophilized material was dissolved in RIA buffer and subjected to ghrelin C- and N-RIA. To elucidate the forms of ghrelin peptides modified by different acyl groups, extracted stomach peptides were collected using a Sep-Pak Plus C18 cartridge (Waters, Milford, Mass.) and subjected to C18 RP-HPLC (Symmetry 300, 3.9×150 mm, Waters) with a linear gradient from 10 to 60% CH3CN/0.1% TFA at a flow rate of 1.0 ml/minute for 40 minutes. Five hundred micro-litter fractions were collected. Ghrelin peptide content in each fraction was measured by ghrelin C- and N-RIA as described above. Degradation of ghrelin was not observed during the extraction.
To clarify what molecular forms of ghrelin peptide are present after the ingestion of triacylglycerol (triacylglycerin), peptide extracts from stomachs of mouse fed chow containing glyceryl trihexanoate (C6:0-MCT), glyceryl trioctanoate (C8:0-MCT), glyceryl tridecanoate (C10:0-MCT), and standard laboratory chow (Control) were fractionated by HPLC, and measured for ghrelin immunoreactivity by C-RIA. […] Based on the observed retention times of synthetic acyl-modified ghrelin peptides, peaks a, d, h, and k corresponded to des-acyl ghrelin, peaks b, f, i, and 1 corresponded to n-octanoyl (C8:0) ghrelin, and peaks c, g, j, and m corresponded to n-decenoyl (10:1) ghrelin.
Male C57BL/6J mice were fed chow mixed with 5% (w/w) glyceryl trihexanoate (C6:0-MCT), glyceryl trioctanoate (C8:0-MCT), or glyceryl tri-decanoate (C10:0-MCT) for 14 days. The concentrations of des-acyl ghrelin, n-hexanoyl ghrelin (C6:0-ghrelin), n-octanoyl ghrelin (C8:0-ghrelin), n-decenoyl ghrelin (C10:1-ghrelin), and n-decanoyl ghrelin (C10:0-ghrelin) from stomach samples (from 0.2 mg wet weight) were measured by ghrelin C-RIA after HPLC fractionation.

The test system of another test is ghrelin mRNA. In words: Northern blot of stomach ghrelin mRNA after glyceryl trioctanoate ingestion. As to conditions: after 4 days of ingestion. In kind it is in vivo, mouse. The text has this: Total RNAs were extracted from the stomachs of male C57BL/6J mice (12 week old) by acid guanidium thiocyanate-phenol chloroform extraction [D24] using TRIzol reagent (Invitrogen, Carlsbad Calif., USA). Two μg of total RNA was electrophoresed through a 1% agarose gel containing formaldehyde, and then transferred to a Zeta-Probe blotting membrane (Bio-Rad Laboratories, Hercules, Calif.). Membranes were hybridized with a ^32P-labeled rat ghrelin cDNA probe in hybridization buffer containing 50% formamide, 5×SSPE, 5×Denhardt's solution, 1% sodium dodecyl sulfate (SDS), and 100 μg/ml denatured salmon sperm. After an overnight hybridization at 37° C., membranes were washed and exposed to BioMax-MS film (Eastman Kodak, Rochester, N.Y.) for 12 hours at −80° C. Ghrelin mRNA levels were quantified using a Bioimaging analyzer BAS 2000 (Fujix, Tokyo, Japan).
To examine if the ingestion of MCTs affects the expression of ghrelin mRNA, mouse stomach RNA was quantitated by Northern blot analysis after 4 days of glyceryl trioctanoate ingestion.
Each lane contained 2 μg of total RNA. The lower panel indicates 28S and 18S ribosomal RNAs internal controls.

The test system of test [2] is acyl-modified and total ghrelin in the stomach. Description: Stomach ghrelin content after medium- to long-chain triacylglycerol ingestion (N-RIA / C-RIA). As to conditions: mice, 5% (w/w) in chow, two weeks, N-RIA. In kind it is in vivo, mouse. The method, then: (§2) RIAs specific for ghrelin were performed as previously described [D2]. Two polyclonal antibodies were raised in rabbits against the N-terminal (Gly^1-Lys^11 with O-n-octanoylation at Ser^3) and C-terminal (Gln^13-Arg^28) fragments of rat ghrelin. RIA incubation mixtures were composed of 100 μl of either standard ghrelin or an unknown sample, with 200 μl of antiserum diluted in RIA buffer (50 mM sodium phosphate buffer (pH 7.4), 0.5% BSA, 0.5% Triton-X100, 80 mM sodium chloride (NaCl), 25 mM disodium ethylenediamine-tetraacetate (EDTA 2-Na) and 0.05% sodium azide (NaN3)) containing 0.5% normal rabbit serum. Anti-rat ghrelin [D1-D11] and anti-rat ghrelin [D13-D28] antisera were used at final dilutions of 1/3,000,000 and 1/20,000, respectively. After a 12-hour incubation at 4° C., 100 μl of ^125I-labeled ligand (20,000 cpm) was added for an additional 36-hour incubation. Then, 100 μl of anti-rabbit goat antibody was added. After incubation for 24 hours at 4° C., free and bound tracers were separated by centrifugation at 3,000 rpm for 30 min. Pellet radioactivity was quantified in a gamma counter (ARC-600, Aloka, Tokyo). All assays were performed in duplicate at 4° C.
as §1
Orally ingested triacylglycerols are intraluminally hydrolyzed and absorbed through the gastro-intestinal mucosa as free fatty acids or monoglycerides. Thus, ingested triacylglycerols may serve as a source of free fatty acids [D26]. To examine if ingested triacylglycerols are used for acyl-modification of ghrelin, mice were fed chow mixed with 5% (w/w) glyceryl trihexanoate (C6), trioctanoate (C8), tridecanoate (C10), and tripalmintate (C16). After two weeks, gastric peptides were extracted. Ghrelin concentration in the stomach of these mice and in that from mice fed standard laboratory chow (Control) (n=8) are shown. The content of acyl-modified and total ghrelins was measured by N- and C-RIA. […]

Test [3] has the same test system. In words: Time course of acyl-modified ghrelin production after glyceryl trioctanoate ingestion. In kind it is in vivo, mouse. The method, then: To examine time-dependent changes in the production of n-octanoyl ghrelin after the ingestion of a glyceryl trioctanoate, mice were fed with glyceryl trioctanoate-containing chow (5%, w/w) after a 12-hour fasting period. The concentrations of acyl-modified and total ghrelins in the stomach were measured at the indicated times.
A represents acyl-modified ghrelin content measured by ghrelin N-RIA. B represents total ghrelin content measured by ghrelin C-RIA. After 12-hour fasting, glyceryl trioctanoate (5% w/w)-containing chow was given to mice beginning at the time (0 hour) indicated by the arrow. Stomach samples were isolated from control mice fed standard laboratory chow (closed circles) and mice fed glyceryl trioctanoate (open circles) at the indicated times. Each point represents mean ±S.D. (n=8). Asterisks indicate statistical significance. *, p<0.05; **, p<0.01 and ***, p<0.001 vs. control.

Test [4] concerns n-heptanoyl ghrelin in the stomach. In words: Molecular forms of stomach ghrelin after glyceryl triheptanoate ingestion (HPLC, C-RIA and N-RIA). As to conditions: mice, HPLC, C-RIA / N-RIA. In kind it is in vivo, mouse. Here is the method:
as §1
Male C57BL/6J mice weighing 20-25 g (10-12 week old) were maintained under controlled temperature (21-23° C.) and light conditions (light on 0700-1900) with ad libitum access to food and water. Glyceryl triheptanoate (Fluka Chemie GmbH, Buchs, Switzerland) was mixed with standard laboratory chow at a concentration of 5% (w/w). Four days after mice were fed glyceryl triheptanoate-containing food, stomachs (total 1,000 mg) were recovered from mice (n=7). The total consumption of glyceryl triheptanoate-containing food was approximately 13.5 g/mouse, amounting to 675 mg total glyceryl triheptanoate ingested by each mouse. Stomachs were minced and boiled for 5 minutes in 5× volumes of water to inactivate intrinsic proteases. […]

Test [5] has as its system anti-rat ghrelin [D1-D11] antiserum. Description: Cross-reactivity of ghrelin N-RIA. As to conditions: for cross-reactivity of N-RIA: relative to n-octanoyl ghrelin. In kind it is binding, rabbit. Here is the method: as §2
The cross-reactivity of N-RIA to n-decanoyl ghrelin and that to n-hexanoyl ghrelin are 20% and 0.3%, respectively. Anti-rat ghrelin [D13-D28] antiserum equally recognized both des-acyl and all acylated forms of ghrelin peptide. In the following sections, the RIA system using the antiserum against the N-terminal fragment of rat ghrelin [D1-D11] is termed N-RIA, while the RIA system using antiserum against the C-terminal fragment [D13-D28] is termed C-RIA.

The mark [6] stands for this setting: mice, 5% (w/w) in chow, 14 days, from 0.2 mg wet weight, C-RIA after HPLC, mean ± S.D.

In the case of `CCCCCCCC(=O)OCC(COC(=O)CCCCCCC)OC(=O)CCCCCCC` [glyceryl trioctanoate], in test [1] (setting [6]), the “C6:0-ghrelin (n-hexanoyl ghrelin) concentration in the stomach” value was 12.4 ± 4.9, the “C8:0-ghrelin (n-octanoyl ghrelin) concentration in the stomach” value was 774.0 ± 89.1^c), the “C10:0-ghrelin (n-decanoyl ghrelin) concentration in the stomach” value was determined as 8.1 ± 3.1 and the “Des-acyl ghrelin concentration in the stomach” value was determined as 236.6 ± 21.1. In test [1] (mice, 5% (w/w) in chow, 14 days, from 0.2 mg wet weight, C-RIA after HPLC, mean ± S.D., fraction holds unidentified ghrelin molecules too), the “C10:1-ghrelin (n-decenoyl ghrelin) concentration in the stomach” value is 51.5 ± 13.2^a). Also, in test [1] (mice, HPLC peak, C-RIA), the “stomach ghrelin modified by the acyl group corresponding to the ingested lipid” value was “stimulated the production of n-octanoyl ghrelin”. Also, in test [1] (stomach of treated mice), the “molar ratio of n-octanoyl/total ghrelin” value is given as “over 60%”. Further, the “expression level of gastric ghrelin mRNA” value with ghrelin mRNA is listed as “did not change”. Further, the “production of acyl-modified ghrelin in stomach tissue” value in test [2] is recorded as “stimulated production”. In addition, the “stomach concentration of acyl-modified ghrelin vs normal chow” value in test [3] (14 days after ingestion, N-RIA) is recorded as “remained significantly higher”. Further, the “onset of increase of acyl-modified ghrelin content in the stomach” value in test [3] (mice, 5% w/w chow after 12-hour fasting, N-RIA) was “increased three hours after the ingestion”. Moreover, the “time to maximal levels of n-octanoyl ghrelin in the stomach after starting ingestion” value in test [3] (mice, 5% w/w chow continuously supplied) amounted to 24 h. In addition, the “stomach content of total ghrelin” value in test [3] (time course, C-RIA) was “no significant changes”.

Consider `CCCCCCC(=O)O` [n-heptanoic acid], for which the “appearance of peak b / d (n-heptanoyl ghrelin) immunoreactivity in stomach extracts” value in test [4] is listed as “also detected”.

As for “des-acyl ghrelin: ghrelin peptide in which the position-3 amino acid is not acylated (GSSFLSPEHQRVQQRKESKKPPAKLQPR; Ghrelin-28 non-acylated; UniProt Q9UBU3 24-51, looked up)”, in test [5], the “recognition by anti-rat ghrelin [D1-D11] antiserum” value is on record as “did not recognize”.

On to n-decanoyl ghrelin, for which, in test [5], the “cross-reactivity of N-RIA” value was 20%.

On to n-hexanoyl ghrelin, for which, in test [5], the “cross-reactivity of N-RIA” value is 0.3%.
